Measured values as given in publication PMC11861906, “Structural basis for lipid-mediated activation of G protein-coupled receptor GPR55” (Nature Communications, 2025).

Target: thromboxane A2 receptor (TBXA2R) (Gα12) (Homo sapiens, UniProt P21731)
Test: BRET² G protein dissociation assay, TBXA2R with Gα12
Type: cell-based
Conditions: for Mean (plotted), G protein dissociation BRET² signal: TBXA2R-G12, Fig. 5c source data
Protocol: G protein dissociation assays were performed according to the original protocols of the TRUPATH BRET² assay[47],[87] but with subtle modifications as previously described[61],[88],[89]. All reagents and cells were obtained from Thermo Fisher Scientific unless indicated otherwise. The coding sequences for the G protein biosensors[47] (Gα12-Rluc8, Gα13-Rluc8, wt Gβ3, and Gγ9-GFP), the wt GPR55, the construct used for cryo-EM (with GFP bearing a G67A mutation to disrupt fluorescence properties[48] for BRET² assays), GPR55 binding pocket mutants (G152^4.56F, G152^4.56W, N171^ECL2Q, N171^ECL2A, T176^5.33A, R253^6.62A), and the wt TBXA2R were codon-optimized for Homo sapiens, gene-synthesized, and sub-cloned into pcDNA^TM3.1(+) between NheI and HindIII restriction sites by GeneArt (Thermo Fisher Scientific). […] Freshly grown cells were washed with Dulbecco’s Balanced Salt Solution (DPBS, cat. #14200075) and detached using trypsin-ethylenediaminetetraacetic acid (trypsin-EDTA) (cat. #25300-062). Then, the cells were reconstituted to 500,000 cells per mL with fresh medium, and 1,000,000 cells were seeded into each well of a 6-well plate. After 3 h incubation at 37 °C and 5% CO2, adherent cells were transfected with 600 ng DNA (1:1:1:1 ratio of plasmid DNA for GPR55, wt Gβ3, Gγ9-GFP, and Gα12-Rluc8 or Gα13-Rluc8). Plasmid DNA was mixed with 1.5 µL Lipofectamine^TM 2000 (cat. #11668027) in Opti-MEM^TM medium (cat. #31985062) and incubated for 20 min. Then, the mixture was added to each well of the 6-well plate following 24 h incubation at 37 °C and 5% CO2. Transfected cells were washed with DPBS, detached using EDTA (Versene, cat. #15040066), and reconstituted into fresh medium at 500,000 cells mL^−1. From this suspension, 50,000 cells were seeded into each well of a white-bottom 96-well plate (Nunc^TM MicroWell^TM 96 wells, cat. #136101) following overnight incubation at 37 °C and 5% CO2. Then, the adherent cells were washed with assay medium [Hank’s balanced salt solution (HBSS, cat. #14065056) plus 20 mM HEPES pH 7.4 (cat. #15630056)] and finally reconstituted into 50 µL of the same medium. […] Methoxy e-Coelenterazine was used as luciferase substrate (Prolume Purple, NanoLight Technology, cat. #369), reconstituted at 1 mM in methanol and diluted to 37.5 µM with assay buffer (7.5 µM final assay concentration). The assay was started by the addition of 20 µL luciferase substrate to each well of the assay plate using a Multidrop^TM Combi reagent dispenser (Thermo Fisher Scientific), followed by 5 min incubation at room temperature. Then, 30 µL of agonist dilutions or DMSO control was added (final DMSO concentration 1.5%), followed by an additional 5 min incubation at room temperature. BRET² measurements were performed with a PHERAstar® FSX microplate reader (BMG LABTECH) using a BRET² filter (donor emission 370–450 nm, acceptor emission 500–530 nm) at the maximum fluorescence gain of 3600. BRET² ratios were calculated by dividing GFP emission signals from Rluc8 emission counts. Buffer-DMSO controls were subtracted from each data point to calculate ΔBRET² ratios. The half-maximal effective concentration (potency, EC50) and maximal effect (efficacy, Emax) were determined by sigmoidal dose-response curve fit with variable slope.

thromboxane A2 receptor (TBXA2R) (Gα12), sequence (P21731 whole entry, species assumed): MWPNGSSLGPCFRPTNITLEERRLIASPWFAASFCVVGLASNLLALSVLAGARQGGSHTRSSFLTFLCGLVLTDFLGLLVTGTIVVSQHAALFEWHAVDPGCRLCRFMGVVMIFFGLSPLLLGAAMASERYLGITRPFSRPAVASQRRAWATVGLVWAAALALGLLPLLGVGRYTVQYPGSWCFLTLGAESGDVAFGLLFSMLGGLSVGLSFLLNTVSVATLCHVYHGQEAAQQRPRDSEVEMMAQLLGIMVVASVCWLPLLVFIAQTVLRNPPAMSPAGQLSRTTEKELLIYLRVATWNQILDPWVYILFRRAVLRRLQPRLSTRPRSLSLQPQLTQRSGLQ
thromboxane A2 receptor (TBXA2R) (Gα12), sequence (Q03113 whole entry partner, species assumed): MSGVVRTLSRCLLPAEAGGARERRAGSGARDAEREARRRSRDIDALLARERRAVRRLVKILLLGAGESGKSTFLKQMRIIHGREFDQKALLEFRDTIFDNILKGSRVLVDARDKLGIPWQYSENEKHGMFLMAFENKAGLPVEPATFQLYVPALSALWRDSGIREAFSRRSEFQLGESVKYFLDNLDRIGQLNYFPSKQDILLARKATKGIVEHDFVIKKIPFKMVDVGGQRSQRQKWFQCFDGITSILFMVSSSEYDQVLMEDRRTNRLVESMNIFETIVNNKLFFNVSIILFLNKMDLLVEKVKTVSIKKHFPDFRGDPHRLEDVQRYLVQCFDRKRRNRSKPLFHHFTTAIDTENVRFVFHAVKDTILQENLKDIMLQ
thromboxane A2 receptor (TBXA2R) (Gα12), sequence (P16520 whole entry partner, species assumed): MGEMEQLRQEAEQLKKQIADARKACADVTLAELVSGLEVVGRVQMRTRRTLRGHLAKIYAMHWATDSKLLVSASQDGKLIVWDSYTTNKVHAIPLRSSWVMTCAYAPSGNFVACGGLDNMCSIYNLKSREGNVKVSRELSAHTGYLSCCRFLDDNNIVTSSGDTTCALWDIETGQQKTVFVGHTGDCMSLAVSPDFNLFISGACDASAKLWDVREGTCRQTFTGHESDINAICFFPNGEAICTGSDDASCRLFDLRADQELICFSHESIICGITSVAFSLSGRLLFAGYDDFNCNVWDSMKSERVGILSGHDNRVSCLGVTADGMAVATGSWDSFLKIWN
thromboxane A2 receptor (TBXA2R) (Gα12), sequence (O14610 1-66 partner limits assumed, species assumed): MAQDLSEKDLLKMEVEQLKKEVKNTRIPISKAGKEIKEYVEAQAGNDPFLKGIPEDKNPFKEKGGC

Mean (plotted), G protein dissociation BRET² signal (concentration 300 pM) | Mean (plotted), G protein dissociation BRET² signal (concentration 1e-9 M) | Mean (plotted), G protein dissociation BRET² signal (concentration 3e-9 M) | Mean (plotted), G protein dissociation BRET² signal (concentration 1e-8 M) | Mean (plotted), G protein dissociation BRET² signal (concentration 3e-8 M) | Mean (plotted), G protein dissociation BRET² signal (concentration 1e-7 M) | Mean (plotted), G protein dissociation BRET² signal (concentration 3e-7 M) | Mean (plotted), G protein dissociation BRET² signal (concentration 1e-6 M) | Mean (plotted), G protein dissociation BRET² signal (concentration 3e-6 M) | Mean (plotted), G protein dissociation BRET² signal (concentration 1e-5 M) | Mean (plotted), G protein dissociation BRET² signal (concentration 3e-5 M) | Efficacy ± SEM (%) (TBXA2, Gα12) | pEC50 ± SEM (TBXA2, Gα12) | EC50 (TBXA2R via Gα12, read-out: potency (EC50)) | Mean (plotted), G protein dissociation BRET² signal (concentration 10 pM) | Mean (plotted), G protein dissociation BRET² signal (concentration 30 pM) | Mean (plotted), G protein dissociation BRET² signal (concentration 100 pM) | SMILES
0.004412 | 0.004455 | 0.002143 | 0.001783 | 0.001091 | -3.229e-5 | 0.0009853 | 0.004147 | 0.0053 | 0.009359 | 0.007653 | – | – | – | – | – | – | Cc1cccc(N2CCN(C(=O)c3cc(S(=O)(=O)N(C)C)ccc3N3CCCC3)CC2)c1C [ML184, 3-[[4-(2,3-dimethylphenyl)-1-piperazinyl]carbonyl]-N,N-dimethyl-4-(1-pyrrolidinyl)benzenesulfonamide]
-0.007 | -0.0104 | -0.01228 | -0.02818 | -0.04678 | -0.06592 | -0.07783 | -0.08315 | – | – | – | 100 ± 8% | 7.62 ± 0.15 | 24 nM | 0.003425 | 0.003325 | -0.00015 | CCCCC[C@H](O)/C=C/[C@@H]1[C@@H](C/C=C\CCCC(=O)O)[C@H]2CO[C@@H]1C2 [U-46619]
